Literature values in US20260209218A1, “3-PHENYLQUINAZOLINONES AS NOVEL ANTI-CANCER THERAPY” (HELMHOLTZ ZENTRUM MÜNCHEN - DEUTSCHES FORSCHUNGSZENTRUM FÜR …, priority 2022, published 2026).

Test system: ferroptosis-resistant tumor cells
Settings: background statement, references 16-18; cited from earlier work

Compound: Cc1ccc(-c2c(C#N)c(N)n3c(nc4ccccc43)c2C#N)cc1 [iFSP1, 1-amino-3-(4-methylphenyl)-pyrido[1,2-a]benzimidazole-2,4-dicarbonitrile]
- sensitisation towards ferroptosis: efficiently sensitizes ferroptosis-resistant tumor cells towards ferroptosis
